Measurements: patent US9556196B2, “Anti-platelet compound addition salt” (GUANGZHOU HEERSHI PHARMA DEVELOPMENT CO., LTD, priority 2011, dated 2017)
Structures can show the parent of a compound that is named as a salt. Where two headings read alike, the source gives them in different places.

What was measured:
[1] = Solubility test for several solid acid addition salts; format: physicochemical
Method: The Solubility Test for Several Solid Acid Addition Salt
In general, it is necessary for a drug with good bioavailability to have a good solubility. Typically, the desired solubility of a drug in a pH range of 1-7.5 is at least 1 mg/ml.

wistar rat [2] = assay: Arteriovenous shunt thrombosis in polyethylene tube method (weight of thrombosis); format: in vivo; conditions: oral gavage, consecutive 3 days, 2 hours after the last administration, shunt lasted 15 min, wet or dry weight not stated
Method: II. Investigation on the Weight of Thrombosis
(§1) Animal: wistar rat, 220-260 g in weight, male, 6-8 each group.
Grouping: the same as above.
Method: Arteriovenous shunt thrombosis in polyethylene tube method.
Index Observed The drug was administrated for consecutive 3 days. 2 hours after the last administration, arteriovenous anastomosis thrombosis was lasted for 15 min, the wet weight and dry weight of the thrombosis formed was investigated.

wistar rat [3] = assay: Current injury carotid artery thrombosis method (time of thrombosis formation); format: in vivo; conditions: oral gavage, consecutive 3 days, 2 hours after the last administration
Method: To compare the pharmacologic effect between the screened salts and the free compound of formula I, the following arterial thrombosis test was carried out with clopidogrel as the positive drug.
I. Investigation on the Time of Thrombosis Formation,
as §1
Grouping: control group, positive drug group (clopidogrel, 10 mg/kg), free compound of formula I, hydrochloride of the compound of formula I and L-camphor sulfonate of the compound of formula I (two dosages for each group, 3 and 9 mg/kg respectively based on the free compound of formula I).
Method: current injury carotid artery thrombosis method and platelet aggregation test.
Drug Administration: oral gavage.
Index observed: the drug was administrated for consecutive 3 days. 2 hours after the last administration, current injury carotid artery thrombosis method was carried out to observe the time of thrombosis formation. Femoral artery blood was sampled and separated to obtain the platelet. The effect on platelet aggregation was investigated with inducing agent ADP for each group, and at the same time, the bleeding time was determined.

[4] = Stability of the free compound in aqueous solution with weak acid or base; format: physicochemical; conditions: presence of weak acid or base in an aqueous solution for a period of time; produces degradation products
[5] = Water solubility of the free compound (inventor's research); format: physicochemical
[6] = Accelerated stability test of the sulfonates formulated into tablets or capsules; format: physicochemical; conditions: tablets or capsules with excipients, 50° C.±2° C., relative humid of 75% ±5%, end of the third month, TLC, stable = no occurrence of impurity
Method: A solid active ingredient with excellent stability is necessary for a solid formulation. To screen a suitable salt with chemical stability, the sulfonates prepared above was formulated into tablets or capsules with powdered excipients. The tablets included microcrystalline cellulose and anhydrous calcium dihydrogen phosphate with a ratio of 1:1. The capsules included Mannitol and Corn starch with a ratio of 4:1. And then, the tablets and the capsules were placed at the temperature of 50° C.±2° C. (incubator with constant temperature and humidity) with relative humid of 75% ±5% (saturated sodium chloride solution) for accelerated test. Sampling at the end of the third month, the tablets and the capsules were crushed and extracted with methanol:chloroform (1:1), and TLC was used to check the stability of the product and the salt was deemed as stable with no occurrence of impurity.

[7] = 3 mg/kg based on the free compound of formula I
[8] = 9 mg/kg based on the free compound of formula I

| SMILES | Weight of thrombosis (wistar rat [2]; [7]) | Weight of thrombosis (wistar rat [2]; [8]) | Thrombosis formation time (wistar rat [3]; [7]) | Thrombosis formation time (wistar rat [3]; [8]) | Solubility [1] [µg/mL] | Stability [6] | other results |
| --- | --- | --- | --- | --- | --- | --- | --- |
| COC(=O)C(c1ccccc1Cl)N1CCc2sc(OC(=O)c3ccccc3OC(C)=O)cc2C1 (centres unmarked) [Benzenesulfonate] | – | – | – | – | – | – | Solubility ([1]; read-out: Solubility): 2500 µg/mL |
| COC(=O)[C@H](c1ccccc1Cl)N1CCc2sccc2C1 [Clopidogrel, clopidogrel, reference compound] | – | – | – | – | – | – | Weight of thrombosis (wistar rat [2]; 10 mg/kg): 3.2 ± 0.5 mg; Thrombosis formation time (wistar rat [3]; 10 mg/kg): 249.9 ± 58.0 s |
| COC(=O)C(c1ccccc1Cl)N1CCc2sc(OC(=O)c3ccccc3OC(C)=O)cc2C1 (centres unmarked) [Free Base, methyl 2-(2-chlorophenyl)-2-(2-acetyl-salicylic acyloxy-4,5,6,7-tetrahydro-thieno[3,2-C]pyridine)-5-acetate] | 4.0 ± 0.6 mg | 3.0 ± 0.5#,& mg | 165 ± 22.4 s | 261 ± 54.3#,& s | – | – | Stability (in words) [4]: not stable enough; Water solubility (in words) [5]: almost insoluable in water |
| COC(=O)C(c1ccccc1Cl)N1CCc2sc(OC(=O)c3ccccc3OC(C)=O)cc2C1 (centres unmarked) [Hydrobromide] | – | – | – | – | 500 | – | – |
| COC(=O)C(c1ccccc1Cl)N1CCc2sc(OC(=O)c3ccccc3OC(C)=O)cc2C1 (centres unmarked) [Hydrochloride] | 3.2 ± 0.7#,Y mg | 2.8 ± 0.5 mg | 210.4 ± 51.1 s | 319.6 ± 35.2#,H,&,Y s | 20 | – | – |
| COC(=O)C(c1ccccc1Cl)N1CCc2sc(OC(=O)c3ccccc3OC(C)=O)cc2C1 [L-camphor sulfonate] | 3.0 ± 0.7#,Y mg | 2.5 ± 0.4 H,&,Y mg | 250.4 ± 35.2 ,Y,* s | 360.2 ± 55.9#,H,&,Y,* s | 4700 | Stable | Stability ([6]; listed as camphor sulfonate): the most stable one |
| COC(=O)C(c1ccccc1Cl)N1CCc2sc(OC(=O)c3ccccc3OC(C)=O)cc2C1 (centres unmarked) [Methanesulfonate] | – | – | – | – | 8200 | Stable | – |
| COC(=O)C(c1ccccc1Cl)N1CCc2sc(OC(=O)c3ccccc3OC(C)=O)cc2C1 (centres unmarked) [P-toluenesulfonate] | – | – | – | – | 1200 | Stable | – |
